Data reported in patent publication US20230085307A1, “PYRIDAZINONE COMPOUND AND HERBICIDE” (NISSAN CHEMICAL CORPORATION, priority 2019, published 2023).

Key:
[1] = tested on: southern crabgrass; experiment: Test Example 5: herbicidal effect by foliage application, plastic box (Table 20, symbol F); format: in vivo, southern crabgrass (Digitaria ciliaris); details: amount of applied herbicide 320 g/ha; foliage application after 14-day growth; evaluated three weeks after application
Procedure, shortened: (§1)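 Plants sown in sterilized diluvial soil and grown 14 days in a greenhouse at 25° C to 30° C, then sprayed on the foliage with the compound's emulsion diluted in water to a predetermined herbicide amount. Injury to weeds and crops scored three weeks after application on a visual rating scale.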

[2] = tested on: persian speedwell; experiment: Test Example 4: herbicidal effect by soil treatment (Table 19, symbol R); format: in vivo, Persian speedwell (Veronica persica); details: amount of applied herbicide 320 g/ha
Procedure, shortened: (§2)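 Seeds were sown in sterilized diluvial soil and covered with about 1.5 cm of soil. An emulsion formulation diluted with water to a predetermined herbicide amount was sprayed evenly onto the soil surface. Plants grew in a greenhouse at 25° C. to 30° C., and the effect was scored three weeks after application using criteria from an earlier test.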

[3] = tested on: windgrass; experiment: Test Example 5: herbicidal effect by foliage application, plastic box (Table 20, symbol L); format: in vivo, windgrass (Apera spica-venti); details: amount of applied herbicide 320 g/ha; foliage application after 14-day growth; evaluated three weeks after application
Procedure, shortened: as §1

[4] = tested on: green foxtail; experiment: Test Example 4: herbicidal effect by soil treatment (Table 19, symbol G); format: in vivo, green foxtail (Setaria viridis); details: amount of applied herbicide 320 g/ha
Procedure, shortened: as §2

[5] = tested on: barnyard grass; experiment: Test Example 5: herbicidal effect by foliage application, plastic box (Table 20, symbol H); format: in vivo, barnyard grass (Echinochloa crus-galli); details: amount of applied herbicide 320 g/ha; foliage application after 14-day growth; evaluated three weeks after application
Procedure, shortened: as §1

[6] = tested on: barnyard grass; experiment: Test Example 4: herbicidal effect by soil treatment (Table 19, symbol H); format: in vivo, barnyard grass (Echinochloa crus-galli); details: amount of applied herbicide 320 g/ha
Procedure, shortened: as §2

[7] = tested on: persian speedwell; experiment: Test Example 5: herbicidal effect by foliage application, plastic box (Table 20, symbol R); format: in vivo, Persian speedwell (Veronica persica); details: amount of applied herbicide 320 g/ha; foliage application after 14-day growth; evaluated three weeks after application
Procedure, shortened: as §1

[8] = tested on: velvetleaf; experiment: Test Example 4: herbicidal effect by soil treatment (Table 19, symbol M); format: in vivo, velvetleaf (Abutilon theophrasti); details: amount of applied herbicide 320 g/ha
Procedure, shortened: as §2

[9] = tested on: blackgrass; experiment: Test Example 4: herbicidal effect by soil treatment (Table 19, symbol J); format: in vivo, blackgrass (Alopecurus myosuroides); details: amount of applied herbicide 320 g/ha
Procedure, shortened: as §2

[10] = tested on: barnyard grass; experiment: Test Example 3: herbicidal effect by foliage application, Wagner pot (Table 18, symbol H); format: in vivo, barnyard grass (Echinochloa crus-galli); details: 320 g/ha
Procedure, shortened: (§3)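 Plants were sown in alluvial soil held under 0.1–0.5 cm standing water and grown 14 days in a greenhouse at 25–30 °C. An emulsifiable formulation, water-diluted to the set dose, was then sprayed onto the foliage, and effects were scored three weeks later using previously defined criteria.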

[11] = tested on: rice flat sedge; experiment: Test Example 3: herbicidal effect by foliage application, Wagner pot (Table 18, symbol E); format: in vivo, rice flat sedge (Cyperus iria); details: 320 g/ha
Procedure, shortened: as §3

[12] = tested on: Italian ryegrass; experiment: Test Example 4: herbicidal effect by soil treatment (Table 19, symbol K); format: in vivo, Italian ryegrass (Lolium multiflorum); details: amount of applied herbicide 320 g/ha
Procedure, shortened: as §2

[13] = tested on: Chinese sprangletop; experiment: Test Example 3: herbicidal effect by foliage application, Wagner pot (Table 18, symbol D); format: in vivo, chinese sprangletop (Leptochloa chinensis); details: 320 g/ha
Procedure, shortened: as §3

[14] = tested on: redroot pigweed; experiment: Test Example 5: herbicidal effect by foliage application, plastic box (Table 20, symbol N); format: in vivo, redroot pigweed (Amaranthus retroflexus); details: amount of applied herbicide 320 g/ha; foliage application after 14-day growth; evaluated three weeks after application
Procedure, shortened: as §1

[15] = tested on: lambsquarters; experiment: Test Example 5: herbicidal effect by foliage application, plastic box (Table 20, symbol O); format: in vivo, lambsquarters (Chenopodium album); details: amount of applied herbicide 320 g/ha; foliage application after 14-day growth; evaluated three weeks after application
Procedure, shortened: as §1

[16] = tested on: lambsquarters; experiment: Test Example 4: herbicidal effect by soil treatment (Table 19, symbol O); format: in vivo, lambsquarters (Chenopodium album); details: amount of applied herbicide 320 g/ha
Procedure, shortened: as §2

[17] = tested on: Italian ryegrass; experiment: Test Example 5: herbicidal effect by foliage application, plastic box (Table 20, symbol K); format: in vivo, Italian ryegrass (Lolium multiflorum); details: amount of applied herbicide 320 g/ha; foliage application after 14-day growth; evaluated three weeks after application
Procedure, shortened: as §1

[18] = tested on: chickweed; experiment: Test Example 5: herbicidal effect by foliage application, plastic box (Table 20, symbol P); format: in vivo, common chickweed (Stellaria media); details: amount of applied herbicide 320 g/ha; foliage application after 14-day growth; evaluated three weeks after application
Procedure, shortened: as §1

[19] = tested on: blackgrass; experiment: Test Example 5: herbicidal effect by foliage application, plastic box (Table 20, symbol J); format: in vivo, blackgrass (Alopecurus myosuroides); details: amount of applied herbicide 320 g/ha; foliage application after 14-day growth; evaluated three weeks after application
Procedure, shortened: as §1

[20] = tested on: green foxtail; experiment: Test Example 5: herbicidal effect by foliage application, plastic box (Table 20, symbol G); format: in vivo, green foxtail (Setaria viridis); details: amount of applied herbicide 320 g/ha; foliage application after 14-day growth; evaluated three weeks after application
Procedure, shortened: as §1

[21] = tested on: redroot pigweed; experiment: Test Example 4: herbicidal effect by soil treatment (Table 19, symbol N); format: in vivo, redroot pigweed (Amaranthus retroflexus); details: amount of applied herbicide 320 g/ha
Procedure, shortened: as §2

[22] = tested on: wild oat; experiment: Test Example 5: herbicidal effect by foliage application, plastic box (Table 20, symbol I); format: in vivo, wild oat (Avena fatua); details: amount of applied herbicide 320 g/ha; foliage application after 14-day growth; evaluated three weeks after application
Procedure, shortened: as §1

[23] = tested on: velvetleaf; experiment: Test Example 5: herbicidal effect by foliage application, plastic box (Table 20, symbol M); format: in vivo, velvetleaf (Abutilon theophrasti); details: amount of applied herbicide 320 g/ha; foliage application after 14-day growth; evaluated three weeks after application
Procedure, shortened: as §1

[24] = tested on: wild oat; experiment: Test Example 4: herbicidal effect by soil treatment (Table 19, symbol I); format: in vivo, wild oat (Avena fatua); details: amount of applied herbicide 320 g/ha
Procedure, shortened: as §2

[25] = tested on: windgrass; experiment: Test Example 4: herbicidal effect by soil treatment (Table 19, symbol L); format: in vivo, windgrass (Apera spica-venti); details: amount of applied herbicide 320 g/ha
Procedure, shortened: as §2

[26] = tested on: chickweed; experiment: Test Example 4: herbicidal effect by soil treatment (Table 19, symbol P); format: in vivo, common chickweed (Stellaria media); details: amount of applied herbicide 320 g/ha
Procedure, shortened: as §2

[27] = tested on: southern crabgrass; experiment: Test Example 4: herbicidal effect by soil treatment (Table 19, symbol F); format: in vivo, southern crabgrass (Digitaria ciliaris); details: amount of applied herbicide 320 g/ha
Procedure, shortened: as §2

## CCCC(=O)Oc1c(C)nn(C)c(=O)c1-c1c(-c2ccc(F)cc2)sc2cc(Cl)c(Cl)cc12 [5-040]
[1]
  Herbicidal effect by foliage application, F: southern crabgrass: 0 (Herbicidal rate of 5% or less (almost no effect))
[2]
  R: persian speedwell, herbicidal effect grade: 0 (Herbicidal rate of 5% or less (almost no effect))
[3]
  Herbicidal effect by foliage application, L: windgrass: 3 (Herbicidal rate of 40% or more and less than 70%)
[4]
  G: green foxtail, herbicidal effect grade: 3 (Herbicidal rate of 40% or more and less than 70%)
[5]
  Herbicidal effect by foliage application, H: barnyard grass: 2 (Herbicidal rate of 20% or more and less than 40%)
[6]
  H: barnyard grass, herbicidal effect grade: 0 (Herbicidal rate of 5% or less (almost no effect))
[7]
  Herbicidal effect by foliage application, R: persian speedwell: 4 (Herbicidal rate of 70% or more and less than 90%)
[8]
  M: velvetleaf, herbicidal effect grade: 2 (Herbicidal rate of 20% or more and less than 40%)
[9]
  J: blackgrass, herbicidal effect grade: 0 (Herbicidal rate of 5% or less (almost no effect))
[10]
  herbicidal effect on barnyard grass (H): 4 (Herbicidal rate of 70% or more and less than 90%)
[11]
  herbicidal effect on rice flat sedge (E): 0 (Herbicidal rate of 5% or less (almost no effect))
[12]
  K: Italian ryegrass, herbicidal effect grade: 0 (Herbicidal rate of 5% or less (almost no effect))
[13]
  herbicidal effect on Chinese sprangletop (D): 1 (Herbicidal rate of 5% or more and less than 20%)
[14]
  Herbicidal effect by foliage application, N: redroot pigweed: 3 (Herbicidal rate of 40% or more and less than 70%)
[15]
  Herbicidal effect by foliage application, O: lambsquarters: 3 (Herbicidal rate of 40% or more and less than 70%)
[16]
  O: lambsquarters, herbicidal effect grade: 0 (Herbicidal rate of 5% or less (almost no effect))
[17]
  Herbicidal effect by foliage application, K: Italian ryegrass: 0 (Herbicidal rate of 5% or less (almost no effect))
[18]
  Herbicidal effect by foliage application, P: chickweed: 5 (Herbicidal rate of 90% or more (almost completely withered))
[19]
  Herbicidal effect by foliage application, J: blackgrass: 0 (Herbicidal rate of 5% or less (almost no effect))
[20]
  Herbicidal effect by foliage application, G: green foxtail: 1 (Herbicidal rate of 5% or more and less than 20%)
[21]
  N: redroot pigweed, herbicidal effect grade: 4 (Herbicidal rate of 70% or more and less than 90%)
[22]
  Herbicidal effect by foliage application, I: wild oat: 3 (Herbicidal rate of 40% or more and less than 70%)
[23]
  Herbicidal effect by foliage application, M: velvetleaf: 1 (Herbicidal rate of 5% or more and less than 20%)
[24]
  I: wild oat, herbicidal effect grade: 0 (Herbicidal rate of 5% or less (almost no effect))
[25]
  L: windgrass, herbicidal effect grade: 0 (Herbicidal rate of 5% or less (almost no effect))
[26]
  P: chickweed, herbicidal effect grade: 0 (Herbicidal rate of 5% or less (almost no effect))
[27]
  F: southern crabgrass, herbicidal effect grade: 0 (Herbicidal rate of 5% or less (almost no effect))

## CCCC(=O)Oc1c(C)nn(C)c(=O)c1-c1c(-c2ccccc2OC)sc2cc(Cl)c(Cl)cc12 [5-042]
[1]
  Herbicidal effect by foliage application, F: southern crabgrass: 0 (Herbicidal rate of 5% or less (almost no effect))
[2]
  R: persian speedwell, herbicidal effect grade: 0 (Herbicidal rate of 5% or less (almost no effect))
[3]
  Herbicidal effect by foliage application, L: windgrass: 0 (Herbicidal rate of 5% or less (almost no effect))
[4]
  G: green foxtail, herbicidal effect grade: 0 (Herbicidal rate of 5% or less (almost no effect))
[5]
  Herbicidal effect by foliage application, H: barnyard grass: 4 (Herbicidal rate of 70% or more and less than 90%)
[6]
  H: barnyard grass, herbicidal effect grade: 0 (Herbicidal rate of 5% or less (almost no effect))
[7]
  Herbicidal effect by foliage application, R: persian speedwell: 4 (Herbicidal rate of 70% or more and less than 90%)
[8]
  M: velvetleaf, herbicidal effect grade: 0 (Herbicidal rate of 5% or less (almost no effect))
[9]
  J: blackgrass, herbicidal effect grade: 0 (Herbicidal rate of 5% or less (almost no effect))
[10]
  herbicidal effect on barnyard grass (H): 5 (Herbicidal rate of 90% or more (almost completely withered))
[11]
  herbicidal effect on rice flat sedge (E): 4 (Herbicidal rate of 70% or more and less than 90%)
[12]
  K: Italian ryegrass, herbicidal effect grade: 0 (Herbicidal rate of 5% or less (almost no effect))
[13]
  herbicidal effect on Chinese sprangletop (D): 2 (Herbicidal rate of 20% or more and less than 40%)
[14]
  Herbicidal effect by foliage application, N: redroot pigweed: 4 (Herbicidal rate of 70% or more and less than 90%)
[15]
  Herbicidal effect by foliage application, O: lambsquarters: 5 (Herbicidal rate of 90% or more (almost completely withered))
[16]
  O: lambsquarters, herbicidal effect grade: 1 (Herbicidal rate of 5% or more and less than 20%)
[17]
  Herbicidal effect by foliage application, K: Italian ryegrass: 0 (Herbicidal rate of 5% or less (almost no effect))
[18]
  Herbicidal effect by foliage application, P: chickweed: 4 (Herbicidal rate of 70% or more and less than 90%)
[19]
  Herbicidal effect by foliage application, J: blackgrass: 0 (Herbicidal rate of 5% or less (almost no effect))
[20]
  Herbicidal effect by foliage application, G: green foxtail: 4 (Herbicidal rate of 70% or more and less than 90%)
[21]
  N: redroot pigweed, herbicidal effect grade: 3 (Herbicidal rate of 40% or more and less than 70%)
[22]
  Herbicidal effect by foliage application, I: wild oat: 0 (Herbicidal rate of 5% or less (almost no effect))
[23]
  Herbicidal effect by foliage application, M: velvetleaf: 5 (Herbicidal rate of 90% or more (almost completely withered))
[24]
  I: wild oat, herbicidal effect grade: 0 (Herbicidal rate of 5% or less (almost no effect))
[25]
  L: windgrass, herbicidal effect grade: 0 (Herbicidal rate of 5% or less (almost no effect))
[26]
  P: chickweed, herbicidal effect grade: 3 (Herbicidal rate of 40% or more and less than 70%)
[27]
  F: southern crabgrass, herbicidal effect grade: 0 (Herbicidal rate of 5% or less (almost no effect))
